Laboratory results reported in patent publication US12565501B2, “Muscarinic acetylcholine M1 receptor antagonists” (Contineum Therapeutics, Inc., priority 2019, dated 2026).
pIC50: −log10 of the molar value.

What was measured:
Format in all cases: cell-based
human M1 receptor = molecular target: T1, human M1 receptor (Homo sapiens, UniProt P11229); experiment: In vitro functional assay of muscarinic acetylcholine receptor activity (aequorin calcium flux, reversal of EC80 acetylcholine response); conditions: CHO-K1 cells stably expressing human M1 receptor with aequorin; acetylcholine at EC80; calcium flux (luminescence); read-out: M1 IC50
T1 sequence (P11229 1-460): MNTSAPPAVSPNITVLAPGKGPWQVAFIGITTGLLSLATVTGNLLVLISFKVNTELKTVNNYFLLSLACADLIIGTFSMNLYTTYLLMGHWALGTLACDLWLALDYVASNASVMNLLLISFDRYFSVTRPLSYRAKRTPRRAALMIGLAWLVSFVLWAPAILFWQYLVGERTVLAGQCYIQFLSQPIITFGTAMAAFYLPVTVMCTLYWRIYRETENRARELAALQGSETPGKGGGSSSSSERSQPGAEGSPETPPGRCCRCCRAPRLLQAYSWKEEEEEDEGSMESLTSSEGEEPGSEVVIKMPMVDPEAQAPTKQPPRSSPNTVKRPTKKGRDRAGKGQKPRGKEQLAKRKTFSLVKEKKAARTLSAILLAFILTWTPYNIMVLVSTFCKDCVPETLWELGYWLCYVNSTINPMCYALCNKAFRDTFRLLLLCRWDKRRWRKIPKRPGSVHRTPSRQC
In short: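 CHO-K1 cells expressing human M1 and aequorin, loaded with 5 μM coelenterazine for 4 h, preincubated with compound 30 min at room temperature, then challenged with EC80 acetylcholine.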

human M2 receptor = molecular target: T2, human M2 receptor (Homo sapiens, UniProt P08172); experiment: In vitro functional assay, reversal of EC80 acetylcholine response in CHO-K1 aequorin cells
T2 sequence (P08172 1-466): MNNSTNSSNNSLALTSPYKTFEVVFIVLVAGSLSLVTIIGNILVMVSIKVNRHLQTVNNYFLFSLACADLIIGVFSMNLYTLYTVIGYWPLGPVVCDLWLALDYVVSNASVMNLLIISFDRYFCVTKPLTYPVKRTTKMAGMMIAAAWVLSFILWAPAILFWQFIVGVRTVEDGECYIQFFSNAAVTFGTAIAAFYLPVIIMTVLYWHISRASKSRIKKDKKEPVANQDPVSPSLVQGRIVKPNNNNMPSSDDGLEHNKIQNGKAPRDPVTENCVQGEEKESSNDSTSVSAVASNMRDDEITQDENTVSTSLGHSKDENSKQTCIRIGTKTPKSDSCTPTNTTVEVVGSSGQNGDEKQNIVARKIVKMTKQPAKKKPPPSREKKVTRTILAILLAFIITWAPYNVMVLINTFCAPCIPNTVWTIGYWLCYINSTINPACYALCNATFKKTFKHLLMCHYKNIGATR
Description: (§1) CHO-K1 cells stably expressing human M1 receptor with aequorin (Perkin Elmer) were grown in F12 media (Gibco) containing 10% FBS (ATCC), 0.4 mg/mL geneticin (Sigma-Aldrich) and 0.25 mg/mL Zeocin (Invitrogen). Cells were grown as per the manufacturer's protocol. For compound testing, cells were grown to confluency and detached gently with Accutase (Sigma-Aldrich) followed by centrifugation for 5 min at 150× g. Cells were then re-suspended in assay buffer (i.e. DMEM/F-12 HEPES without phenol red (Invitrogen) with 0.1% BSA (Sigma-Aldrich)) at a density of 5×10^6 cells/ml. Under sterile conditions, 5 μM coelenterazine (Invitrogen) was added to the cells, mixed, then incubated at room temperature protected from light, with gentle agitation, for 4 h.
(§2) Primary compound plates were prepared in 100% DMSO in opaque 96-well plates (VWR) and serially diluted in half log increments. Secondary compound plates were prepared at 3× concentration in assay buffer. Compounds were added to white, clear bottom tissue culture treated 96-well plates (Fisher Scientific). Coelenterazine-loaded cells were then added at 5×10^5 cells/well.
(§3) Compounds and cells were incubated at room temperature for 30 min in the dark. Acetylcholine at the EC80 concentration was added and calcium flux measured using a FlexStation 3 (Molecular Devices). Sigmoidal dose-response curves were generated by measuring luminescence over 40 sec and calculating the area under the curve. Dose response curves and IC50 values were generated using Prism (GraphPad). Compounds were tested at a final concentration range of 100 μM to […] in 0.1% DMSO.
(§4) CHO-K1 cells stably expressing human M2, M3 and M4 receptors, respectively, with aequonin (Perkin Elmer) were used to assess a test compound's ability to dose-dependently reverse the EC80 acetylcholine response. The IC50 of the compounds was calculated from the dose response curve.

human M3 receptor = human M3 receptor (Homo sapiens, UniProt P20309); experiment: as above
human M3 receptor, sequence (P20309 whole entry): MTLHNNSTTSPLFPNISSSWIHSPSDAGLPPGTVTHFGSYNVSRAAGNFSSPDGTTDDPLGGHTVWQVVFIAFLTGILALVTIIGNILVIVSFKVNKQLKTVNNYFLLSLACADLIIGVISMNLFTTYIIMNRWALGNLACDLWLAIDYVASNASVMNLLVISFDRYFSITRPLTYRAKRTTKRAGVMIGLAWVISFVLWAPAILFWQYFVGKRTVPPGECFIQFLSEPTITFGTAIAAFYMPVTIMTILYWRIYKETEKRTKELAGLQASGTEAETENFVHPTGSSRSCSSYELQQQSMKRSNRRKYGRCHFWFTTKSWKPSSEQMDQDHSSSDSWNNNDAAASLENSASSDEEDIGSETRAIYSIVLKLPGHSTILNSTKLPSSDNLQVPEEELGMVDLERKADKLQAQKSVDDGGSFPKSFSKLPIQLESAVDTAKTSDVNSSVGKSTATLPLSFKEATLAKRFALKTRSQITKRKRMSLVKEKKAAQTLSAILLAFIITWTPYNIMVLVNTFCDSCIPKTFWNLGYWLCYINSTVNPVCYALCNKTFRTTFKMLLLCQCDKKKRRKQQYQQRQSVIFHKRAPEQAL
Description: as §1, §2, §3, §4

human M4 receptor = molecular target: T3, human M4 receptor (Homo sapiens, UniProt P08173); experiment: as above
T3 sequence (P08173 1-479): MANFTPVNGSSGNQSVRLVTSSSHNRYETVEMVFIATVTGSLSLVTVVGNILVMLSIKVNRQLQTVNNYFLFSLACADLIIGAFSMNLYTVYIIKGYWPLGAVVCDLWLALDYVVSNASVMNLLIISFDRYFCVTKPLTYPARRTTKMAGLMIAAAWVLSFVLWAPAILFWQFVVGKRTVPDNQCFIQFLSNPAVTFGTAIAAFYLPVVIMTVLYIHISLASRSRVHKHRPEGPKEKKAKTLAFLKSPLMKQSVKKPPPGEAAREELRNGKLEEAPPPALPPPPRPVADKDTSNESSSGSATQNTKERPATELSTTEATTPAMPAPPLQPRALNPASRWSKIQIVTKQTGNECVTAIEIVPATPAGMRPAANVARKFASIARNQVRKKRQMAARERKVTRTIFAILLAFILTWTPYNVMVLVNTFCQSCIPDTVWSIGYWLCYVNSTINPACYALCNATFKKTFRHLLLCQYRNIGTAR
Description: as §1, §2, §3, §4

| SMILES | pIC50 (human M1 receptor) | pIC50 (human M2 receptor) | pIC50 (human M3 receptor) | pIC50 (human M4 receptor) |
| --- | --- | --- | --- | --- |
| N#Cc1ccc(N2C3CCC2CN(C(=O)CCNC2(c4ccc(F)c(F)c4)CC2)C3)nc1 [Example 1, 6-(3-(3-((1-(3,4-difluorophenyl)cyclopropyl)amino)propanoyl)-3,8-diazabicyclo[3.2.1]octan-8-yl)nicotinonitrile] | > 8.00 | 6.00 to 7.00 | 5.00 to 6.00 | 6.00 to 7.00 |
| N#Cc1ccc(N2C3CCC2CN(C(=O)CNC2(c4ccc(F)cc4F)CC2)C3)nc1 [Example 59, 6-(3-((1-(2,4-difluorophenyl)cyclopropyl)glycyl)-3,8-diazabicyclo[3.2.1]octan-8-yl)nicotinonitrile] | > 8.00 | 5.00 to 6.00 | 5.00 to 6.00 | 5.00 to 6.00 |
| C[C@H](NCC(=O)N1CC2CCC(C1)N2c1ccc(C#N)cn1)c1ccc(F)cc1F [Example 87, 6-(3-(((S)-1-(2,4-difluorophenyl)ethyl)glycyl)-3,8-diazabicyclo[3.2.1]octan-8-yl)nicotinonitrile] | > 8.00 | 5.00 to 6.00 | 5.00 to 6.00 | 5.00 to 6.00 |
| N#Cc1ccc(N2C3CCC2CN(C(=O)COC2(c4cc(F)cc(F)c4)CC2)C3)nc1 [Example 210, 6-(3-(2-(1-(3,5-difluorophenyl)cyclopropoxy)acetyl)-3,8-diazabicyclo[3.2.1]octan-8-yl)nicotinonitrile] | 7.00 to 8.00 | < 6.00 | 5.00 to 6.00 |  |
| N#Cc1ccc(N2C3CCC2CN(C(=O)COC2(c4ncccc4F)CCC2)C3)nc1 [Example 250, 6-(3-(2-(1-(3-fluoropyridin-2-yl)cyclobutoxy)acetyl)-3,8-diazabicyclo[3.2.1]octan-8-yl)nicotinonitrile] | 6.00 to 7.00 | < 6.00 | 5.00 to 6.00 |  |
| N#Cc1ccc(N2C3CCC2CN(C(=O)COC2(c4cccc(C#N)c4)CC2)C3)nc1 [Example 295, 6-(3-(2-(1-(3-cyanophenyl)cyclopropoxy)acetyl)-3,8-diazabicyclo[3.2.1]octan-8-yl)nicotinonitrile] | 6.00 to 7.00 |  |  |  |
| N#Cc1ccc(C2(OCC(=O)N3CC4CCC(C3)N4c3ccc(C#N)cn3)CC2)cc1 [Example 296, 6-(3-(2-(1-(4-cyanophenyl)cyclopropoxy)acetyl)-3,8-diazabicyclo[3.2.1]octan-8-yl)nicotinonitrile] | 5.00 to 6.00 |  |  |  |
| N#Cc1ccc(N2C3CCC2CN(C(=O)COC2(c4ccc(F)cc4C#N)CC2)C3)nc1 [Example 297, 6-(3-(2-(1-(2-cyano-4-fluorophenyl)cyclopropoxy)acetyl)-3,8-diazabicyclo[3.2.1]octan-8-yl)nicotinonitrile] | 7.00 to 8.00 |  |  |  |
| N#Cc1ccc(N2C3CCC2CN(C(=O)COC2(c4cc(F)ccc4C#N)CC2)C3)nc1 [Example 298, 6-(3-(2-(1-(2-cyano-5-fluorophenyl)cyclopropoxy)acetyl)-3,8-diazabicyclo[3.2.1]octan-8-yl)nicotinonitrile] | 6.00 to 7.00 |  |  |  |
| Cn1c(C2(OCC(=O)N3CC4CCC(C3)N4c3ccc(C#N)cn3)CCC2)cccc1=O [Example 299, 6-(3-(2-(1-(1-methyl-6-oxo-1,6-dihydropyridin-2-yl)cyclobutoxy)acetyl)-3,8-diazabicyclo[3.2.1]octan-8-yl)nicotinonitrile] | 7.00 to 8.00 |  |  |  |
| Cn1ccc(C2(OCC(=O)N3CC4CCC(C3)N4c3ccc(C#N)cn3)CCC2)cc1=O [Example 300, 6-(3-(2-(1-(1-methyl-2-oxo-1,2-dihydropyridm-4-yl)cyclobutoxy)acetyl)-3,8-diazabicyclo[3.2.1]octan-8-yl)nicotinonitrile] | 7.00 to 8.00 |  |  |  |
| Cn1ccc(=O)c(C2(OCC(=O)N3CC4CCC(C3)N4c3ccc(C#N)cn3)CC2)c1 [Example 302, 6-(3-(2-(1-(1-methyl-4-oxo-1,4-dihydropyridin-3-yl)cyclopropoxy)acetyl)-3,8-diazabicyclo[3.2.1]octan-8-yl)nicotinonitrile] | < 6.00 |  |  |  |
| N#Cc1ccc(N2C3CCC2CN(C(=O)CCOC2(c4ccc(F)c(F)c4)CCC2)C3)nc1 [Example 303, 6-(3-(3-(1-(3,4-difluorophenyl)cyclobutoxy)propanoyl)-3,8-diazabicyclo[3.2.1]octan-8-yl)nicotinonitrile] | > 8.00 |  |  |  |
| C[C@@H](OCCC(=O)N1C[C@H]2CC[C@@H](C1)N2c1ccc(C#N)cn1)c1ccccc1 [Example 304, 6-(3-(3-((R)-1-phenylethoxy)propanoyl)-3,8-diazabicyclo[3.2.1]octan-8-yl)nicotinonitrile] | 7.00 to 8.00 | 5.00 to 6.00 | < 6.00 |  |
| C[C@H](OCCC(=O)N1CC2CCC(C1)N2c1ccc(C#N)cn1)c1ccccc1 [Example 305, 6-(3-(3-((S)-1-phenylethoxy)propanoyl)-3,8-diazabicyclo[3.2.1]octan-8-yl)nicotinonitrile] | 6.00 to 7.00 |  |  |  |
| C[C@@H](OCCC(=O)N1CC2CCC(C1)N2c1ccc(C#N)cn1)c1ccc(F)c(F)c1 [Example 306, 6-(3-(3-((R)-1-(3,4-difluorophenyl)ethoxy)propanoyl)-3,8-diazabicyclo[3.2.1]octan-8-yl)nicotinonitrile] | 7.00 to 8.00 |  |  |  |
| N#Cc1ccc(N2C3CCC2CN(C(=O)CCOCC2(c4ccccc4)CC2)C3)nc1 [Example 307, 6-(3-(3-((1-phenylcyclopropyl)methoxy)propanoyl)-3,8-diazabicyclo[3.2.1]octan-8-yl)nicotinonitrile] | 6.00 to 7.00 |  |  |  |
| N#Cc1ccc(N2C3CCC2CN(C(=O)CCOC2(c4ccc(F)cc4)CCC2)C3)nc1 [Example 310, 6-(3-(3-(1-(4-fluorophenyl)cyclobutoxy)propanoyl)-3,8-diazabicyclo[3.2.1]octan-8-yl)nicotinonitrile] | > 8.00 |  |  |  |
| N#Cc1ccc(N2C3CCC2CN(C(=O)COC2(c4cncc(O)c4)CCC2)C3)nc1 [Example 313, 6-(3-(2-(1-(5-hydroxypyridin-3-yl)cyclobutoxy)acetyl)-3,8-diazabicyclo[3.2.1]octan-8-yl)nicotinonitrile] | > 8.00 |  |  |  |
| N#Cc1ccc(N2C3CCC2CN(C(=O)COC2(c4cncc(OCC(F)(F)F)c4)CCC2)C3)nc1 [Example 314, 6-(3-(2-(1-(5-(2,2,2-trifluoroethoxy)pyridin-3-yl)cyclobutoxy)acetyl)-3,8-diazabicyclo[3.2.1]octan-8-yl)nicotinonitrile] | 7.00 to 8.00 |  |  |  |
| N#Cc1ccc(N2C3CCC2CN(C(=O)COC2(c4c(F)cncc4F)CCC2)C3)nc1 [Example 316, 6-(3-(2-(1-(3,5-difluoropyridin-4-yl)cyclobutoxy)acetyl)-3,8-diazabicyclo[3.2.1]octan-8-yl)nicotinonitrile] | > 8.00 |  |  |  |
